The record followed here is US20100311741A1, “Bicyclosulfonyl Acid (BCSA) Compounds and Their Use as Therapeutic Agents” (INHIBOX LTD., priority 2007, published 2010).

The subject of one series is HDAC (HeLa cell extract). In words: Selectivity assay: HDAC activity, fluorescent assay (Fluor de Lys). The conditions noted are these: single concentration @100 (μM). The class given is biochemical. On the procedure:
Alternatively, the activity of the compounds as HDAC inhibitors was determined using a commercially available fluorescent assay kit (Fluor de Lys™, BioMol Research Labs, Inc., Plymouth Meeting, USA). HeLa extract was incubated for 1 hour at 37° C. in assay buffer (25 mM HEPES, 137 mM NaCl, 2.7 mM KCl, 1 mM MgCl2, pH 8.0) with 15 μM acetylated substrate in the presence of test compound (HDAC inhibitor). The extent of deacetylation was determined by the addition of 50 μL of a 1-in-500 dilution of Developer, and subsequent measurement of the fluorescence (excitation 355 nm, emission 460 nm), according to the instructions provided with the kit.
The HeLa cell extract was made from HeLa cells (ATCC Ref. No. CCL-2) by freeze-thawing three times in 60 mM Tris.HCl, pH 8.0, 450 mM NaCl, 30% glycerol. Two cell volumes of extraction buffer were used, and particulate material was centrifuged out (20,800 g, 4° C., 10 minutes). The supernatant extract having deacetylase activity was aliquoted and frozen for storage.
(§1) Percent activity (% activity) for each test compound was calculated as:
(§2) % activity={(S^C−B)/(S^o−B)}×100
(§3) wherein S^C denotes signal measured in the presence of enzyme and the compound being tested, S^o denotes signal measured in the presence of enzyme but in the absence of the compound being tested, and B denotes the background signal measured in the absence of both enzyme and compound being tested. The IC50 corresponds to the concentration which achieves 50% activity.

Series [1] deals with T1, Human recombinant TACE enzyme (Homo sapiens, UniProt P78536).
T1 construct: purchased R and D Systems, Abingdon, UK 930-ADB
T1 sequence (P78536 215-671 limits assumed): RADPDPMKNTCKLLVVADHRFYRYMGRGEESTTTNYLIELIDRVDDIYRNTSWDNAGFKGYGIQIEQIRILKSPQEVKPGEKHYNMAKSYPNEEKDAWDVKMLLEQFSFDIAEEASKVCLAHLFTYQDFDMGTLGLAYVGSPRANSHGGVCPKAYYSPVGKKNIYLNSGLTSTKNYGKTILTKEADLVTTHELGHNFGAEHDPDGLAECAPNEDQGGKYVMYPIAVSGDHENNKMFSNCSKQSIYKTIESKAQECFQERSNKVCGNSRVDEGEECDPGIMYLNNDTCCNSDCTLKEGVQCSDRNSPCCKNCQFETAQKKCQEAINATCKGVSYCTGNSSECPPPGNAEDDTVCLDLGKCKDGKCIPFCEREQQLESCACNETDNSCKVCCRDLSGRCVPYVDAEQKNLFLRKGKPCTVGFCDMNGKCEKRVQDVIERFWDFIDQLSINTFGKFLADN
In words: TACE assay (fluorescent peptide substrate). Format: biochemical. The following applies: 3.5 h; for inhibition at 100 µM: single concentration @100 (μM), read-out: Av. TACE Inhibition, % @100; for inhibition at 2 µM: single concentration @2 (μM), read-out: Av. TACE Inhibition, % @2. Here is the method: The activity of the compounds as TACE inhibitors was determined using a commercially available peptide substrate (M-2255, Bachem UK Ltd, St. Helens, UK) and recombinant TACE enzyme (930-ADB, R and D Systems, Abingdon, UK). Human recombinant TACE enzyme (5 ng/30 μL) was incubated for 3.5 hour at 37° C. in assay buffer (25 mM Tris.HCl, 2.5 μM ZnCl2, 0.005% Brij 35, pH 8.0) with 5 μM substrate in the presence of test compound (TACE inhibitor). The extent of TACE activity was determined by measurement of the fluorescence (excitation 355 nm, emission 460 nm).
as §1, §2, §3

With `Cc1cc(C(C)Oc2ccc(N3C(CC(=O)NO)c4ccccc4S3(=O)=O)cc2)c2ccccc2n1` (centres unmarked) [Compound (5.56), 2-(2-{4-[1-(2-Methylquinolin-4-yl)ethoxy]-phenyl}-1,1-dioxo-2,3-dihydro-1H-benzo[d]isothiazol-3-yl)-N-hydroxyacetamide], the melting point was 200 to 204 °C (dec.). Same read-out and setting: the result for `O=C(CC1c2ccccc2S(=O)(=O)N1c1ccc(OCc2ccnc3ccccc23)cc1)NO` (centres unmarked) [Compound (5.57), 2-{1,1-Dioxo-2-[4-(quinolin-4-ylmethoxy)phenyl]-2,3-dihydro-1H-benzo[d]isothiazol-3-yl}-N-hydroxyacetamide] reads 218 to 220 °C (dec.).

With `Cc1cc(COc2ccc(N3C(CC(=O)NO)c4ccccc4S3(=O)=O)cc2)c2cc(F)ccc2n1` (centres unmarked) [Compound (5.58), 2-{2-[4-(6-Fluoro-2-methyl-quinolin-4-ylmethoxy)-phenyl]-1,1-dioxo-2,3-dihydro-1H-benzo[d]isothiazol-3-yl}-N-hydroxyacetamide], the melting point was > 140 °C (dec.). Regarding `Cc1cc(COc2ccc(N3C(CC(=O)NO)c4ccccc4S3(=O)=O)cc2)c2cc(Cl)ccc2n1` (centres unmarked) [Compound (5.59), 2-{2-[4-(6-Chloro-2-methylquinolin-4-ylmethoxy)-phenyl]-1,1-dioxo-2,3-dihydro-1H-benzo[d]isothiazol-3-yl}-N-hydroxyacetamide], the melting point was > 215 °C (dec.).

For `Cc1cc(COc2ccc(N3C(CC(=O)NO)c4ccccc4S3(=O)=O)cc2)ccn1` (centres unmarked) [Compound (5.60), 2-{2-[4-(2-Methyl-pyridin-4-ylmethoxy)-phenyl]-1,1-dioxo-2,3-dihydro-1H-benzo[d]isothiazol-3-yl}-N-hydroxyacetamide], the melting point was > 204 °C (dec.). Same read-out and setting: the result for `Cc1cc(COc2ccc(N3C(CC(=O)NO)c4ccccc4S3(=O)=O)cc2)cc(C)n1` (centres unmarked) [Compound (5.61), 2-{2-[4-(2,6-Dimethyl-pyridin-4-ylmethoxy)phenyl]-1,1-dioxo-2,3-dihydro-1H-benzo[d]isothiazol-3-yl}-N-hydroxyacetamide] reads > 210 °C (dec.). The same measure, in the same setting: the value for `COc1ccc2c(c1)C(CC(=O)NO)N(c1ccccc1)S2(=O)=O` (centres unmarked) [Compound (5.62), 2-(5-Methoxy-1,1-dioxo-2-phenyl-2,3-dihydro-1H-benzo[d]isothiazol-3-yl)-N-hydroxyacetamide] was 180 to 182 °C. As for `O=C(CC1c2cc3c(cc2S(=O)(=O)N1c1ccccc1)OCCO3)NO` (centres unmarked) [Compound (5.63), 2-(1,1-Dioxo-2-phenyl-2,3,6,7-tetrahydro-1H-5,8-dioxa-thia-2-aza-cyclopenta[b]naphthalen-3-yl)-N-hydroxyacetamide], the melting point is 202 to 204 °C (dec.). Turning to `COc1cc2c(cc1OC)S(=O)(=O)N(c1ccccc1)C2CC(=O)NO` (centres unmarked) [Compound (5.64), 2-(5,6-Dimethoxy-1,1-dioxo-2-phenyl-2,3-dihydro-1H-benzo[d]isothiazol-3-yl)-N-hydroxyacetamide], the melting point is 197 to 199 °C (dec.). Same read-out and setting: the value for `O=C(CC1c2ccc(Br)cc2S(=O)(=O)N1c1ccccc1)NO` (centres unmarked) [Compound (5.68), 2-(6-Bromo-1,1-dioxo-2-phenyl-2,3-dihydro-1H-benzo[d]isothiazol-3-yl)-N-hydroxyacetamide] was 182 to 183 °C. In the case of `O=C(C[C@H]1c2ccccc2S(=O)(=O)N1c1ccccc1)NO` [IX-002], the “Av. HDAC Inhibition, % @100” value in the series on HDAC (HeLa cell extract) is recorded as 43%@100. Still for that read-out and setting: the result for `O=C(C[C@@H]1c2ccccc2S(=O)(=O)N1c1ccccc1)NO` [IX-003] reads 44%@100; that for `O=C(CC1c2ccccc2S(=O)(=O)N1c1ccc2ccccc2c1)NO` (centres unmarked) [IX-004], 32%@100. As for `COc1ccccc1N1C(CC(=O)NO)c2ccccc2S1(=O)=O` (centres unmarked) [IX-008], in series [1], the inhibition at 100 µM came out at 50%. On to `COc1ccc(N2C(CC(=O)NO)c3ccccc3S2(=O)=O)cc1` (centres unmarked) [IX-010], for which, in the series on HDAC (HeLa cell extract), the “Av. HDAC Inhibition, % @100” value was 17%@100.

As to `O=C(CC1c2ccccc2S(=O)(=O)N1c1cccc(Oc2ccccc2)c1)NO` (centres unmarked) [IX-011], the inhibition at 100 µM in series [1] amounted to 86%. Take `O=C(CC1c2ccccc2S(=O)(=O)N1c1ccc(Cl)cc1)NO` (centres unmarked) [IX-012]: the “Av. HDAC Inhibition, % @100” value in the series on HDAC (HeLa cell extract) turned out to be 11%@100. In the case of `CSc1cccc(N2C(CC(=O)NO)c3ccccc3S2(=O)=O)c1` (centres unmarked) [IX-013], the inhibition at 100 µM in series [1] turned out to be 93%. Consider `O=C(CC1c2ccccc2S(=O)(=O)N1c1cccc(C(F)(F)F)c1)NO` (centres unmarked) [IX-014], for which the inhibition at 100 µM in series [1] stood at 81%. On the same count and under the same terms, the value for `O=C(CC1c2ccccc2S(=O)(=O)N1c1cccc(OC(F)(F)F)c1)NO` (centres unmarked) [IX-015] was 54%; that for `O=C(CC1c2ccccc2S(=O)(=O)N1c1cccc(-c2ccccc2)c1)NO` (centres unmarked) [IX-017] was 97%; that for `O=C(CC1c2ccccc2S(=O)(=O)N1c1ccc(C(F)(F)F)cc1)NO` (centres unmarked) [IX-019] was 55%. Still for that read-out and setting: the result for `CC(C)c1ccc(N2C(CC(=O)NO)c3ccccc3S2(=O)=O)cc1` (centres unmarked) [IX-024] reads 50%; that for `O=C(CC1c2ccccc2S(=O)(=O)N1c1ccc(-n2cncn2)cc1)NO` (centres unmarked) [IX-030], 54%. Regarding `O=C(CC1c2ccccc2S(=O)(=O)N1c1ccc(-c2cnco2)cc1)NO` (centres unmarked) [IX-031], the inhibition at 100 µM in series [1] worked out at 70%. On the same count and under the same terms, the value for `O=C(CC1c2ccccc2S(=O)(=O)N1c1ccc(N2CCOCC2)cc1)NO` (centres unmarked) [IX-034] was 36%; that for `O=C(CC1NS(=O)(=O)c2ccccc21)NO` (centres unmarked) [IX-039] was 28%. With `CN1C(CC(=O)NO)c2ccccc2S1(=O)=O` (centres unmarked) [IX-040], the inhibition at 100 µM in series [1] came to 28%. Regarding `O=C(CC1c2ccccc2S(=O)(=O)N1C1CCN(Cc2ccccc2)CC1)NO` (centres unmarked) [IX-044], in series [1], the inhibition at 2 µM came to 0%. Turning to `CN(C)CCOc1ccc(N2C(CC(=O)NO)c3ccccc3S2(=O)=O)cc1` (centres unmarked) [IX-051], in series [1], the inhibition at 100 µM is 81%.

On to `O=C(CC1c2ccccc2S(=O)(=O)N1c1ccc(OCCN2CCOCC2)cc1)NO` (centres unmarked) [IX-052], for which the inhibition at 100 µM in series [1] turned out to be 53%.

Consider `COc1cc2c(c(OC)c1OC)S(=O)(=O)N(c1ccccc1)C2CC(=O)NO` (centres unmarked) [IX-071], for which the inhibition at 2 µM in series [1] came out at 10%.

Consider `COc1cc(OC)c2c(c1)C(CC(=O)NO)N(c1ccccc1)S2(=O)=O` (centres unmarked) [IX-072], for which, in series [1], the inhibition at 2 µM came out at 15%. The same measure, in the same setting: the value for `Cc1ccc2c(c1)S(=O)(=O)N(c1ccccc1)C2CC(=O)NO` (centres unmarked) [IX-073] was 32%; that for `O=C(CC1c2ccc(Br)cc2S(=O)(=O)N1c1ccccc1)NO` (centres unmarked) [IX-074] was 10%. On the same count and under the same terms, the result for `O=C(CC1c2ccc(-c3ccccc3)cc2S(=O)(=O)N1c1ccccc1)NO` (centres unmarked) [IX-079] reads 4%; that for `COc1cccc2c1C(CC(=O)NO)N(c1ccccc1)S2(=O)=O` (centres unmarked) [IX-082], 35%; that for `O=C(CC1c2cccc(C(F)(F)F)c2S(=O)(=O)N1c1ccccc1)NO` (centres unmarked) [IX-084], 0%. On the same count and under the same terms, the value for `Cc1cc(F)c2c(c1)C(CC(=O)NO)N(c1ccccc1)S2(=O)=O` (centres unmarked) [IX-085] was 57%. Regarding `O=C(CC1c2c(ccc(F)c2Cl)S(=O)(=O)N1c1ccccc1)NO` (centres unmarked) [IX-086], the inhibition at 2 µM in series [1] is 20%. Same read-out and setting: the value for `O=C(CC1c2cccc(Cl)c2S(=O)(=O)N1c1ccccc1)NO` (centres unmarked) [IX-088] was 34%.

Take `O=C(CC1c2c(Cl)cc(Cl)cc2S(=O)(=O)N1c1ccccc1)NO` (centres unmarked) [IX-089]: in series [1], the inhibition at 2 µM was 0%. Consider `O=C(CC1c2ccc(C(F)(F)F)cc2S(=O)(=O)N1c1ccccc1)NO` (centres unmarked) [IX-090], for which the inhibition at 2 µM in series [1] is 10%. The same measure, in the same setting: the result for `COc1cccc2c1S(=O)(=O)N(c1ccccc1)C2CC(=O)NO` (centres unmarked) [IX-091] reads 13%.

In the case of `COc1cc(Cl)cc2c1S(=O)(=O)N(c1ccccc1)C2CC(=O)NO` (centres unmarked) [IX-092], in series [1], the inhibition at 2 µM was determined as 23%. For `COc1ccc2c(c1Cl)C(CC(=O)NO)N(c1ccccc1)S2(=O)=O` (centres unmarked) [IX-093], in series [1], the inhibition at 2 µM came out at 29%.

As for `O=C(CCC1c2ccccc2S(=O)(=O)N1c1ccccc1)NO` (centres unmarked) [IX-094], in series [1], the inhibition at 100 µM came to 26%. On to `O=C(NO)C1c2ccccc2S(=O)(=O)N1c1ccccc1` (centres unmarked) [IX-095], for which, in series [1], the inhibition at 100 µM was 38%. In the case of `O=C(NO)C1c2c(Cl)cccc2S(=O)(=O)N1c1ccccc1` (centres unmarked) [IX-096], in series [1], the inhibition at 100 µM came out at 27%.

Regarding `O=C(O)CC1c2ccccc2S(=O)(=O)N1c1ccccc1` (centres unmarked) [IX-099], the melting point is 178 to 179 °C (dec.). Moreover, in series [1], the inhibition at 100 µM turned out to be 9%.

Consider `CC#CCOc1ccc(N2C(CC(=O)O)c3ccccc3S2(=O)=O)cc1` (centres unmarked) [IX-100], for which the melting point lay in the range of 160 to 161 °C. Besides, in series [1], the inhibition at 100 µM came to 50%.
